In article PMC6934184, “Selective DNA-PKcs inhibition extends the therapeutic index of localized radiotherapy and chemotherapy” (The Journal of Clinical Investigation, 2019):

Molecular target: T1, BRSK1 (SAD1) (Homo sapiens, UniProt Q8TDC3)
T1 construct: purchased Thermo Fisher Scientific (Life Technologies) SelectScreen
Assay: SelectScreen Z'LYTE
Assay type: biochemical
In short: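 Percent values come from Thermo SelectScreen profiling of NU5455, combining activity and binding assays. CSF1R was run in Z'LYTE format at Km app ATP, and CAMK1 in Adapta format with ATP listed at 10.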

T1 sequence (Q8TDC3 whole entry): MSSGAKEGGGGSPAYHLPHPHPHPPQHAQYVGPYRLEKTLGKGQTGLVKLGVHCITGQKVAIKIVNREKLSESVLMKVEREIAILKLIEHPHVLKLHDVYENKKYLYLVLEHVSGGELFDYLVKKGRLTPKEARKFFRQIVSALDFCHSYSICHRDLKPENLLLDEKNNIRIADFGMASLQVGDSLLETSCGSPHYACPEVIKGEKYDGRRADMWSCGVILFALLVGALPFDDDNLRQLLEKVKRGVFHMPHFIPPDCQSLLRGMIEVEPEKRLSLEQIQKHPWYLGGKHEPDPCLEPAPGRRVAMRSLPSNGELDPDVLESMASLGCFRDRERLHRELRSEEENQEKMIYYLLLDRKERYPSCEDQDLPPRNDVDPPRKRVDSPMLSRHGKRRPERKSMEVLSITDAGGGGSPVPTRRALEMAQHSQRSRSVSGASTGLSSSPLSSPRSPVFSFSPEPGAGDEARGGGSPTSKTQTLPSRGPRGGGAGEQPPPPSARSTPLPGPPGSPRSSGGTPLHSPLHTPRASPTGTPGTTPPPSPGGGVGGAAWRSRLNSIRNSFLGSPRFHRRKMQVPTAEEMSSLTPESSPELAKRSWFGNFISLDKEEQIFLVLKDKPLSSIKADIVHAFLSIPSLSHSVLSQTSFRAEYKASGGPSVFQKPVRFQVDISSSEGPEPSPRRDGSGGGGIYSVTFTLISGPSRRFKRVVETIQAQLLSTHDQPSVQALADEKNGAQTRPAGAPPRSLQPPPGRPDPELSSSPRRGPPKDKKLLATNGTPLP

CN(C(=O)CN1CCOCC1)c1ccc2sc3c(-c4cccc5c(=O)cc(N6CC7CCC(C6)O7)oc45)cccc3c2c1 [NU5455]
inhibition at 1 µM: -1.1%
